Data reported in patent US20140148336A1, “METHODS OF CONTROLLING FUNGAL PATHOGENS USING POLYENE FUNGICIDES” (priority 2012, published 2014).

Legend:
soybean = test: Seed treatment in uninfested soil, germination and potential phytotoxicity (Example 5); type: in vivo; conditions: for Root Vigor Average (Uninfested Soil): rating 0-4 (4 = healthy taproot)
From the text: (§1) The plants were allowed to grow for 18-21 days. The plants were then gently removed and assessed for root rot symptoms, with a rating of 1=0% infection on taproot and lateral roots, a 2=<25% infection, a 3=25-50% infection, a 4=51-90% infection, and a 5=>90% infection. Root vigor was rated such that a rating of 4=healthy taproot and many lateral roots, a 3=fewer lateral roots and some stunting, a 2=fewer or stringy lateral roots and more stunting, 1=thin tap root and only a few lateral roots, and a 0=thin and stunted taproot with 0-3 lateral roots.
(§2) Using a protocol similar to Example 2, natamycin treated seeds were tested at 50 μg, 25 μg, 10 μg, 5 μg, and 1 μg natamycin per seed. Briefly, seeds were coated with a natamycin slurry and then allowed to air dry. Ten samples of each were planted into infested soil, while five samples of each were planted in uninfested soil to compare germination and potential phytotoxicity.

[1] = test system: SDS Fusarium virguliforme; test: Drench treatment on soy seedlings for control of SDS in planta, low concentrations (Example 4); type: in vivo; conditions: for Root Vigor Average Expt. 1 / Root Vigor Average Expt. 2: rating 0 (thin and stunted taproot) to 4 (healthy taproot); for Root Vigor Average Expt. 1: IC 1.6, UIC 3.6; for Root Vigor Average Expt. 2: IC 2.2, UIC 3.9; for Root Rot Average Expt. 2 / Root Rot Average Expt. 1: rating 1 (0% infection) to 5 (>90% infection); for Root Rot Average Expt. 2: IC 3.8, UIC 1; for Root Rot Average Expt. 1: IC 4, UIC 1
From the text: The plants were allowed to grow for 18-21 days. The plants were then gently removed and assessed for root rot symptoms, with a rating of 1=0% infection on taproot and lateral roots, a 2=<25% infection, a 3=25-50% infection, a 4=51-90% infection, and a 5=>90% infection. Root vigor was rated such that a rating of 4=healthy taproot and many lateral roots, a 3=fewer lateral roots and some stunting, a 2=fewer or stringy lateral roots and more stunting, 1=thin tap root and only a few lateral roots, and a 0=thin and stunted taproot with 0-3 lateral roots. […] In these experiments, the inoculum rate was measured by spores/cone at approximately 1×10^7 SDS Fusarium virguliforme spores per cone. Soy plants were germinated first and then transplanted into infested soil. The soybean seeds were germinated in clean sand/soil for 12 days and then seedlings were transplanted into infested soil for 18 days. Natamycin drench was applied 24 hours after transplanting. Natamycin treatment was assessed at 2.5 weeks.

SDS = test: Seed treatment for control of SDS in planta, infested soil (Example 5); type: in vivo, Fusarium virguliforme; conditions: for Root Rot Average: 25 g inoculum per liter, rating 1-5 (5 = >90% infection), IC 3.3; for Root Vigor Average Infested Soil: rating 0-4 (4 = healthy taproot), IC 2.5
From the text: as §1, §2
Inoculum rates in this experiment were 25 g inoculum per liter sand/soil. This is equivalent to 8.5×10^4 spores per cone.
Plants treated with 50 μg/seed of natamycin had the most root rot, while plants treated with 1 μg/seed of natamycin had the least root rot. […] In the tables below, “IC Natamycin 25 ppm” refers to an infested control that was treated with natamcyin as a drench application at 25 ppm two days after planting untreated seed into infested soil.

[2] = drench 25 ppm two days after planting untreated seed into infested soil

C[C@@H]1C/C=C/C=C/C=C/C=C/[C@H](O[C@@H]2O[C@H](C)[C@@H](O)[C@H](N)[C@@H]2O)C[C@@H]2O[C@](O)(C[C@@H](O)C[C@H]3O[C@@H]3/C=C/C(=O)O1)C[C@H](O)[C@H]2C(=O)O [Natamycin, natamycin]
germination of plants (soybean; all plants, seed treatment at all natamycin concentrations (50, 25, 10, 5, 1 μg per seed), un-infested (clean) soil): germinated | Root Vigor Average (Uninfested Soil) (soybean; seed treatment 1 μg/seed): 3.5 | Root Vigor Average (Uninfested Soil) (soybean; seed treatment 5 μg/seed): 3.9 | Root Vigor Average (Uninfested Soil) (soybean; seed treatment 10 μg/seed): 3.6 | Root Vigor Average (Uninfested Soil) (soybean; seed treatment 25 μg/seed): 3.3 | Root Vigor Average (Uninfested Soil) (soybean; seed treatment 50 μg/seed): 3.8 | phytotoxicity to seeds (soybean; seed treatment at all concentrations (50, 25, 10, 5, 1 μg per seed), un-infested soil): not phytotoxic | Root Vigor Average Expt. 1 ([1]; drench 1 ppm): 1.7 | Root Vigor Average Expt. 2 ([1]; drench 1 ppm): 2.5 | Root Rot Average Expt. 2 ([1]; drench 1 ppm): 3.2 | Root Rot Average Expt. 1 ([1]; drench 1 ppm): 4.5 | Root Vigor Average Expt. 1 ([1]; drench 5 ppm): 2 | Root Vigor Average Expt. 2 ([1]; drench 5 ppm): 2.7 | Root Rot Average Expt. 2 ([1]; drench 5 ppm): 3.4 | Root Rot Average Expt. 1 ([1]; drench 5 ppm): 3.9 | Root Vigor Average Expt. 1 ([1]; drench 10 ppm): 2.1 | Root Vigor Average Expt. 2 ([1]; drench 10 ppm): 3 | Root Rot Average Expt. 2 ([1]; drench 10 ppm): 3.1 | Root Rot Average Expt. 1 ([1]; drench 10 ppm): 3.5 | Root Vigor Average Expt. 1 ([1]; drench 25 ppm): 2.8 | Root Vigor Average Expt. 2 ([1]; drench 25 ppm): 3.1 | Root Rot Average Expt. 2 ([1]; drench 25 ppm): 2.6 | Root Rot Average Expt. 1 ([1]; drench 25 ppm): 2.9 | Root Vigor Average Expt. 1 ([1]; drench 50 ppm): 2.3 | Root Vigor Average Expt. 2 ([1]; drench 50 ppm): 2.9 | Root Rot Average Expt. 2 ([1]; drench 50 ppm): 2.6 | Root Rot Average Expt. 1 ([1]; drench 50 ppm): 3.1 | Root Rot Average (SDS; [2]): 1.8 | Root Vigor Average Infested Soil (SDS; [2]): 2.3 | Root Rot Average (SDS; seed treatment 1 μg/seed, infested soil): 3 | Root Vigor Average Infested Soil (SDS; seed treatment 1 μg/seed): 1.9 | Root Rot Average (SDS; seed treatment 5 μg/seed, infested soil): 3.6 | Root Vigor Average Infested Soil (SDS; seed treatment 5 μg/seed): 2.4 | Root Rot Average (SDS; seed treatment 10 μg/seed, infested soil): 4 | Root Vigor Average Infested Soil (SDS; seed treatment 10 μg/seed): 1.8 | Root Rot Average (SDS; seed treatment 25 μg/seed, infested soil): 4.7 | Root Vigor Average Infested Soil (SDS; seed treatment 25 μg/seed): 1.1 | Root Rot Average (SDS; seed treatment 50 μg/seed, infested soil): 4.6 | Root Vigor Average Infested Soil (SDS; seed treatment 50 μg/seed): 1.6
